Experimental data taken from ChEMBL document CHEMBL1649497, “Comparison of the pharmacodynamics of biapenem in bronchial epithelial lining fluid in healthy volunteers given half-hour and three-hour intravenous infusions” (Antimicrob Agents Chemother, 2009).

How the values were obtained:
[1] = T>MIC in healthy human at plasma MIC of 0.25 ug/ml and compound dose of 0.3 […], iv after 3 hrs; assay type: functional
[2] = T>MIC in healthy human at epithelial lining fluid MIC of 1 ug/ml and compound dose of 0.3 […], iv after 3 hrs; assay type: functional
[3] = T>MIC in healthy human at plasma MIC of 1 ug/ml and compound dose of 0.3 […], iv after 0.5 hrs; assay type: functional
[4] = T>MIC in healthy human at epithelial lining fluid MIC of 4 ug/ml and compound dose of 0.3 […], iv after 0.5 hrs; assay type: functional
[5] = Cmax in epithelial lining fluid of healthy human at 0.3 […], iv after 0.5 hrs; assay type: ADME, organism-based; set-up: route intravenous
[6] = T>MIC in healthy human at plasma MIC of 2 ug/ml and compound dose of 0.3 […], iv after 3 hrs; assay type: functional
[7] = T>MIC in healthy human at epithelial lining fluid MIC of 2 ug/ml and compound dose of 0.3 […], iv after 0.5 hrs; assay type: functional
[8] = T>MIC in healthy human at plasma MIC of 0.5 ug/ml and compound dose of 0.3 […], iv after 3 hrs; assay type: functional
[9] = T>MIC in healthy human at epithelial lining fluid MIC of 2 ug/ml and compound dose of 0.3 […], iv after 3 hrs; assay type: functional
[10] = Tmax in epithelial lining fluid of healthy human at 0.3 […], iv after 0.5 hrs; assay type: ADME, organism-based
[11] = T>MIC in healthy human at epithelial lining fluid MIC of 4 ug/ml and compound dose of 0.3 […], iv after 3 hrs; assay type: functional
[12] = Drug level in epithelial lining fluid of healthy human at 0.3 […], iv after 3 hrs; assay type: ADME, organism-based; conditions: read-out: Drug uptake
[13] = Tmax in plasma of healthy human at 0.3 […], iv after 0.5 hrs; assay type: ADME, organism-based
[14] = T>MIC in healthy human at plasma MIC of 0.5 ug/ml and compound dose of 0.3 […], iv after 0.5 hrs; assay type: functional
[15] = Tmax in plasma of healthy human at 0.3 […], iv after 3 hrs; assay type: ADME, organism-based
[16] = Cmax in epithelial lining fluid of healthy human at 0.3 […], iv after 3 hrs; assay type: ADME, organism-based; set-up: route intravenous
[17] = Drug level in epithelial lining fluid of healthy human at 0.3 […], iv after 0.5 hrs; assay type: ADME, organism-based; conditions: read-out: Drug uptake
[18] = AUC in epithelial lining fluid of healthy human at 0.3 […], iv after 0.5 hrs; assay type: ADME, organism-based; set-up: time < 0.5 hr, route intravenous
[19] = AUC in plasma of healthy human at 0.3 […], iv after 0.5 hrs; assay type: ADME, organism-based; set-up: time < 0.5 hr, route intravenous
[20] = Cmax in plasma of healthy human at 0.3 […], iv after 0.5 hrs; assay type: ADME, organism-based; set-up: route intravenous
[21] = T>MIC in healthy human at epithelial lining fluid MIC of 0.5 ug/ml and compound dose of 0.3 […], iv after 0.5 hrs; assay type: functional
[22] = AUC in plasma of healthy human at 0.3 […], iv after 3 hrs; assay type: ADME, organism-based; set-up: time < 3 hr, route intravenous
[23] = AUC in epithelial lining fluid of healthy human at 0.3 […], iv after 3 hrs; assay type: ADME, organism-based; set-up: time < 3 hr, route intravenous
[24] = T>MIC in healthy human at epithelial lining fluid MIC of 0.25 ug/ml and compound dose of 0.3 […], iv after 3 hrs; assay type: functional
[25] = Tmax in epithelial lining fluid of healthy human at 0.3 […], iv after 3 hrs; assay type: ADME, organism-based
[26] = T>MIC in healthy human at epithelial lining fluid MIC of 1 ug/ml and compound dose of 0.3 […], iv after 0.5 hrs; assay type: functional
[27] = T>MIC in healthy human at plasma MIC of 4 ug/ml and compound dose of 0.3 […], iv after 3 hrs; assay type: functional
[28] = Cmax in plasma of healthy human at 0.3 […], iv after 3 hrs; assay type: ADME, organism-based; set-up: route intravenous
[29] = T>MIC in healthy human at plasma MIC of 2 ug/ml and compound dose of 0.3 […], iv after 0.5 hrs; assay type: functional
[30] = T>MIC in healthy human at plasma MIC of 1 ug/ml and compound dose of 0.3 […], iv after 3 hrs; assay type: functional
[31] = T>MIC in healthy human at epithelial lining fluid MIC of 0.5 ug/ml and compound dose of 0.3 […], iv after […] hrs; assay type: functional
[32] = T>MIC in healthy human at plasma MIC of 0.25 ug/ml and compound dose of 0.3 […], iv after 0.5 hrs; assay type: functional
[33] = T>MIC in healthy human at epithelial lining fluid MIC of 0.5 ug/ml and compound dose of 0.3 […], iv after 3 hrs; assay type: functional
[34] = T>MIC in healthy human at plasma MIC of 4 ug/ml and compound dose of 0.3 […], iv after 0.5 hrs; assay type: functional

C[C@@H](O)[C@H]1C(=O)N2C(C(=O)[O-])=C(SC3Cn4cnc[n+]4C3)[C@H](C)[C@H]12 (some centres undefined) [BIAPENEM]
fT>MIC [1]: 64.5%
fT>MIC [2]: 29.1%
fT>MIC [3]: 31.9%
fT>MIC [4]: 0%
Cmax [5]: 2350 ng/mL
fT>MIC [6]: 34.3%
fT>MIC [7]: 5.8%
fT>MIC [8]: 53.7%
fT>MIC [9]: 17.4%
Tmax [10]: 1.5 h
fT>MIC [11]: 5.1%
concentration at 3 h [12]: 1330 ng/mL
Tmax [13]: 0.5 h
fT>MIC [14]: 43.1%
Tmax [15]: 3 h
Cmax [16]: 4360 ng/mL
concentration at 0.5 h [17]: 3480 ng/mL
AUC at 0.5 h [18]: 6400 ng·h/mL
AUC at 0.5 h [19]: 25000 ng·h/mL
Cmax [20]: 18100 ng/mL
fT>MIC [21]: 25.5%
AUC at 3 h [22]: 25400 ng·h/mL
AUC at 3 h [23]: 13300 ng·h/mL
fT>MIC [24]: 52.2%
Tmax [25]: 1.8 h
fT>MIC [26]: 15.5%
fT>MIC [27]: 22.3%
Cmax [28]: 6800 ng/mL
fT>MIC [29]: 21.1%
fT>MIC [30]: 43.8%
fT>MIC [31]: 34.6%
fT>MIC [32]: 53.5%
fT>MIC [33]: 41.4%
fT>MIC [34]: 12.6%
